Patent US9284283B2, “Macrocyclic compounds for modulating IL-17” (ENSEMBLE THERAPEUTICS CORPORATION, priority 2012, dated 2016)
Values joined by “and” are separate entries in the source; they are usually repeats but may differ in a detail not shown here. Equal entries are not always repeated.

Assays:
DNFB-treated BALB/c mice = assay: Murine model of delayed hypersensitivity (DNFB-induced ear edema); assay type: in vivo, mouse; settings: for Reduction in edema (%): ear weight 24 h after DNFB challenge
Experimental: We used a murine model of fluorodinitrobenzene (DNFB)-induced ear edema to test the anti-inflammatory activity of both orally dosed and intraperitoneally dosed exemplary compounds of the invention. BALB/c mice (Harlan Sprague-Dawley, Inc., male, 6-8 weeks old) were topically treated on their shaved abdomen with 30 μL of 0.5% 1-fluoro-2,4-dinitrobenzene (DNFB) (4:1 acetone:olive oil) once on Day 0 and once on Day 1.
For oral dosing (“PO”), exemplary compounds of the invention were either suspended at 3 mg/mL in 20% Cremophor EL (Sigma) (20:80; Cremophor:water) or dissolved at 1 mg/mL or 3 mg/mL in D-α-tocopherol polyethylene glycol 1000 succinate (TPGS; Sigma)/PEG-400/water (20:60:20). For intraperitoneal dosing (“IP”), exemplary compounds of the invention were dissolved in DMSO at a concentration of 5 mg/mL. On day 7, the test compound was administered (PO at either 10 mg/kg or 30 mg/kg; IP at 1, 3, or 10 mg/kg) to DNFB-treated mice. Commercially available anti-mouse IL-17A (BioLegend) administered intraperitoneally at 5 mg/kg in PBS was used as a positive control. Thirty minutes later, 20 μL of 0.2% DNFB was applied to the right ear of animals and vehicle ([…]:olive oil) was applied to the left ear. One and four hours after DNFB challenge, a subset of mice was exsanguinated and plasma prepared from the blood. Twenty-four hours after challenge, the remaining mice were euthanized, and their ears were removed and weighed to determine the amount of edema. Plasma was assayed for interleukin-6, TNF-α, CXCL1, and interferon-γ concentrations using commercially-available assays.

[1] = tested on: murine collagen-induced arthritis; assay: Mouse collagen-induced arthritis (CIA) model; assay type: in vivo; settings: for reduction of overall mean Clinical Arthritis Score: FIG. 11
Experimental: Exemplary compounds of the invention were evaluated in a murine CIA model. […] mice (10/group) were anaesthetized with Isoflurane, shaved at the base of the tail, and injected intradermally with 150 μL of Freund's Complete Adjuvant (Sigma) containing bovine type II collagen (Elastin Products, Owensville, Mo.) (2 mg/mL) at the base of the tail on day 0 and again on day 21. On study days 24-25, onset of arthritis occurred and mice were randomized into treatment groups. Randomization into each group was done after swelling was obviously established in at least one paw (score of 1), and attempts were made to ensure approximately equal mean scores of 0.25 across the groups at the time of enrollment. Once a day oral treatment with 10 or 30 mg/kg of test compound in 20% Cremophor EL was initiated after enrollment and continued once a day as indicated through arthritis day 10. Mice were terminated on day 11. Clinical scores were calculated for each of the paws (right front, left front, right rear, and left rear) on arthritis days 1-11 and the results were summarized as a reduction in clinical arthritis score for all paws over the time period of dosing.

[2] = biological target: T1, biotinylated human IL-17 (binding to IL17R/Fc) (Homo sapiens, UniProt Q16552); assay: IL-17 competition ELISA II (captured IL17R/Fc, biotinylated IL-17)
T1 construct: purchased R&D Systems 317-ILB (IL-17, biotinylated); 177-IR (IL17R/Fc)
T1 sequence (Q16552 20-155 limits assumed): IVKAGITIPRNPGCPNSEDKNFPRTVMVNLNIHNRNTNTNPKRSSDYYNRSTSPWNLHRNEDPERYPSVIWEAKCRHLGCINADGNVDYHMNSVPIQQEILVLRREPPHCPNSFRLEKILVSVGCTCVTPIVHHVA
Procedure, shortened: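 Anti-human IgG-coated plates captured IL17R/Fc (10 nM), then compound (5-fold dilutions from 1 μM) and biotinylated human IL-17 (20 nM stock) were added for 30 min at room temperature in PBST. Bound IL-17 detected by streptavidin-HRP/TMB at 450 nm. IC50 from 4-parameter logistic fit between no-competitor and blank controls.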

Question: Which results are given for `O=C1CNC(=O)[C@@H](Cc2ccc(NC(=O)[C@H](Cc3ccccc3Cl)NC(=O)Cc3ccccc3)cc2)NC(=O)CC2(CCCC2)CC(=O)NCCCCCN1` [Compound 159]?
Answer: reduction in TNF-α, IFN-γ and edema as compared to a PBS control or DMSO control (DNFB-treated BALB/c mice; i.p. 10 mg/kg, FIG. 1): statistically significant reduction; reduction in IL-6, IFN-γ and edema compared to a DMSO control (DNFB-treated BALB/c mice; i.p. at 1 mg/kg, 3 mg/kg, or 10 mg/kg, FIG. 2): statistically significant reduction; Reduction in edema (%) (DNFB-treated BALB/c mice; ip, 1 mg/kg): 17%; IFNγ Reduction (%) (DNFB-treated BALB/c mice; ip, 1 mg/kg, plasma): 54.2%; IL6 Reduction (%) (DNFB-treated BALB/c mice; ip, 1 mg/kg, plasma): 62.6%; Reduction in edema (%) (DNFB-treated BALB/c mice; ip, 3 mg/kg): 44%; IFNγ Reduction (%) (DNFB-treated BALB/c mice; ip, 3 mg/kg, plasma): 85.5%; IL6 Reduction (%) (DNFB-treated BALB/c mice; ip, 3 mg/kg, plasma): 72.2%; Reduction in edema (%) (DNFB-treated BALB/c mice; ip, 10 mg/kg): 54.1% and 54%; IL6 Reduction (%) (DNFB-treated BALB/c mice; ip, 10 mg/kg, plasma): 78.6%; TNFα Reduction (%) (DNFB-treated BALB/c mice; ip, 10 mg/kg, plasma): 21.7%; IL-6, IFN-γ, and edema, dose-dependent (DNFB-treated BALB/c mice; orally dosed in TPGS/PEG400/Water vehicle, FIG. 5): effectively reduced; Reduction in edema (%) (DNFB-treated BALB/c mice; po, 10 mg/kg): 19.0%; IFNγ Reduction (%) (DNFB-treated BALB/c mice; po, 10 mg/kg, plasma): 24.2%; IL6 Reduction (%) (DNFB-treated BALB/c mice; po, 10 mg/kg, plasma): 29.8%; Reduction in edema (%) (DNFB-treated BALB/c mice; po, 30 mg/kg): 53.7%; IFNγ Reduction (%) (DNFB-treated BALB/c mice; po, 30 mg/kg, plasma): 64.5%; IL6 Reduction (%) (DNFB-treated BALB/c mice; po, 30 mg/kg, plasma): 58.3%; reduction of overall mean Clinical Arthritis Score ([1]; orally 10 mg/kg): 6%; reduction of overall mean Clinical Arthritis Score ([1]; orally 30 mg/kg): 11%; reduction in mean Clinical Arthritis Score on days 27-30 as compared to vehicle controls ([1]; orally 10 and 30 mg/kg in 20% Cremophor EL, FIG. 10): superior reduction

Question: `O=C1CNC(=O)[C@@H](Cc2ccc(NC(=O)[C@H](Cc3ccccc3Cl)NC(=O)Cc3ccccn3)cc2)NC(=O)CC2(CCCC2)CC(=O)NCCCCCN1` [Compound 226] was tested. Which IC50 [2] did it give?
Answer: < 100 nM

Question: How did the IC50 [2] turn out when `O=C1CNC(=O)[C@@H](Cc2ccc(NC(=O)[C@H](Cc3ccccc3Cl)NC(=O)c3cccnc3)cc2)NC(=O)CC2(CCCC2)CC(=O)NCCCCCN1` [Compound 194] was run?
Answer: < 100 nM

Question: Which IC50 [2] does the source give for `O=C1CNC(=O)[C@@H](Cc2ccc(NC(=O)[C@@H](NC(=O)Cc3ccccc3)C3CCCCC3)cc2)NC(=O)CC2(CCCC2)CC(=O)NCCCCCN1` [Compound 186] here?
Answer: < 100 nM
